The values below come from US7592366B2, “Therapeutic compounds” (Allergan, Inc., priority 2006, dated 2009).

One may read the EC50 as the concentration that produces a half-maximal response. By Ki is commonly meant the dissociation constant of the complex between target and ligand, obtained from inhibition or displacement.

For one data set, the target named is T1, hEP2/Gqs5 (Homo sapiens, UniProt P43116).
T1 construct: expressed in transfected cells; host or cells: HEK-293(EBNA)
Nature of the data set: FLIPR calcium signal, EP2. As to conditions: HEK-293(EBNA) cells. It counts as cell-based. How it is done: (§1) HEK-293(EBNA) cells, stably expressing one type or subtype of recombinant human prostaglandin receptors (prostaglandin receptors expressed: hDP/Gqs5; hEP1; hEP2/Gqs5; hEP3A/Gqi5; hEP4/Gqs5; hFP; hIP; hTP), were cultured in 100 mm culture dishes in high-glucose DMEM medium containing 10% fetal bovine serum, 2 mM l-glutamine, 250 μg/ml geneticin (G418) and 200 μg/ml hygromycin B as selection markers, and 100 units/ml penicillin G, 100 μg/ml streptomycin and 0.25 μg/ml amphotericin B.
(§2) Cells were seeded at a density of 5×10^4 cells per well in Biocoat® Poly-D-lysine-coated black-wall, clear-bottom 96-well plates (Becton-Dickinson) and allowed to attach overnight in an incubator at 37° C. Cells were then washed two times with HBSS-HEPES buffer (Hanks Balanced Salt Solution without bicarbonate and phenol red, 20 mM HEPES, pH 7.4) using a Denley Cellwash plate washer (Labsystems). After 45 minutes of dye-loading in the dark, using the calcium-sensitive dye Fluo-4 […] at a final concentration of 2 μM, plates were washed four times with HBSS-HEPES buffer to remove excess dye leaving 100 μl in each well. Plates were re-equilibrated to 37° C. for a few minutes.
(§3) Cells were excited with an Argon laser at 488 nm, and emission was measured through a 510-570 nm bandwidth emission filter (FLIPR™, Molecular Devices, Sunnyvale, Calif.). Drug solution was added in a 50 μl volume to each well to give the desired final concentration. The peak increase in fluorescence intensity was recorded for each well. On each plate, four wells each served as negative (HBSS-HEPES buffer) and positive controls (standard agonists: BW245C (hDP); PGE2 (hEP1; hEP2/Gqs5; hEP3A/Gqi5; hEP4/Gqs5); PGF2α (hFP); carbacyclin (hIP); U-46619 (hTP), depending on receptor). The peak fluorescence change in each drug-containing well was then expressed relative to the controls.
(§4) Compounds were tested in a high-throughput (HTS) or concentration-response (CoRe) format. In the HTS format, forty-four compounds per plate were examined in duplicates at a concentration of 10^−5 M. To generate concentration-response curves, four compounds per plate were tested in duplicates in a concentration range between 10^−5 and 10^−11 M. The duplicate values were averaged. In either, HTS or CoRe format each compound was tested on at least 3 separate plates using cells from different passages to give an n≧3.

For another data set, the target named is T2, hEP4/Gqs5 (Homo sapiens, UniProt P35408).
T2 construct: expressed in transfected cells; host or cells: HEK-293(EBNA)
Nature of the data set: FLIPR calcium signal, EP4. As to conditions: HEK-293(EBNA) cells. Format: cell-based. How it is done:
as §1, §2, §3, §4

Another data set concerns the target T3, EP4 receptors (Homo sapiens, UniProt P35408).
T3 construct: expressed in transfected cells; host or cells: HEK-293
In words: Radioligand binding [3H]PGE2, EP4 Ki. As to conditions: [3H]PGE2 competition, HEK-293 cells expressing EP4. How it is done: (§5) HEK-293 cells stably expressing the human or feline FP receptor, or EP1, EP2, or EP4 receptors were washed with TME buffer, scraped from the bottom of the flasks, and homogenized for 30 sec using a Brinkman PT 10/35 polytron. TME buffer was added to achieve a final 40 ml volume in the centrifuge tubes (the composition of TME is 100 mM TRIS base, 20 mM MgCl2, […]; 10N HCl is added to achieve a pH of 7.4).
(§6) The cell homogenate was centrifuged at 19000 r.p.m. for 20 min at 4° C. using a Beckman Ti-60 rotor. The resultant pellet was resuspended in TME buffer to give a final 1 mg/ml protein concentration, as determined by Biorad assay. Radioligand binding competition assays vs. [^3H-]17-phenyl PGF2α (5 nM) were performed in a 100 μl volume for 60 min. Binding reactions were started by adding plasma membrane fraction. The reaction was terminated by the addition of 4 ml ice-cold TRIS-HCl buffer and rapid filtration through glass fiber GF/B filters using a Brandel cell harvester. The filters were washed 3 times with ice-cold buffer and oven dried for one hour.
(§7) [^3H-] PGE2 (specific activity 180 Ci mmol) was used as the radioligand for EP receptors. [^3H] 17-phenyl PGF2α was employed for FP receptor binding studies. Binding studies employing EP1, EP2, EP4 and FP receptors were performed in duplicate in at least three separate experiments. A 200 μl assay volume was used. Incubations were for 60 min at 25° C. and were terminated by the addition of 4 ml of ice-cold 50 mM TRIS-HCl, followed by rapid filtration through Whatman GF/B filters and three additional 4 ml washes in a cell harvester (Brandel). Competition studies were performed using a final concentration of 5 nM [^3H]-PGE2, or 5 nM [^3H] 17-phenyl PGF2α and non-specific binding determined with 10^−5M of unlabeled PGE2, or 17-phenyl PGF2α, according to receptor subtype studied.

A further data set concerns the target T4, hTP (Homo sapiens, UniProt P21731).
T4 construct: expressed in transfected cells; host or cells: HEK-293(EBNA)
T4 sequence (P21731 1-343): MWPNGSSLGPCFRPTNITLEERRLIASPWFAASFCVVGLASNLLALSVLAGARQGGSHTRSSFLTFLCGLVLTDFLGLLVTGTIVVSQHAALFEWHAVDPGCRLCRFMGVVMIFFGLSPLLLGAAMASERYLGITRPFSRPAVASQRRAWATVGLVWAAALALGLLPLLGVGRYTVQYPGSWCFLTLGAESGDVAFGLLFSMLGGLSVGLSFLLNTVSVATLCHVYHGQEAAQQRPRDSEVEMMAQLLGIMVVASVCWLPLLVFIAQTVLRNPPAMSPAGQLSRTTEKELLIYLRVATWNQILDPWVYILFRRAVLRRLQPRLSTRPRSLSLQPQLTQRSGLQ
Nature of the data set: FLIPR calcium signal, hTP. It counts as cell-based. As to conditions: read-out: Other Receptors (EC50 in nM) hTP. Here is the method: as §1, §2, §3
Compounds were tested in a high-throughput (HTS) or concentration-response (CoRe) format. […]

The next data set has as its system normotensive dogs. Nature of the data set: Intraocular pressure and ocular surface hyperemia in normotensive dogs. On the set-up: scale not given here. It counts as in vivo, dog. As to conditions: 0.01%, once daily for 5 days, at 74 h. An excerpt:
U.S. Pat. No. 7,091,231 describes the methods used for these in vivo tests.

For data set [1], the target named is T5, EP2 (Homo sapiens, UniProt P43116). In words: Competition binding [3H]PGE2, EP2 Ki. On the set-up: expressed in transfected cells; host or cells: HEK 293. Conditions: [3H]PGE2 competition, HEK 293 cells expressing human EP2. Here is the method: Competition binding experiments were performed in a medium containing Hank's balanced salt solution, Hepes 20 mM, pH 7.3, membranes (˜60 μg protein) or 2×10^5 cells from HEK 293 cells stably expressing human EP2 receptors, [^3H]PGE2 (10 nM) and various concentrations of test compounds in a total volume of 300 μl. Reaction mixtures were incubated at 23° C. for 60 min, and were filtered over Whatman GF/B filters under vacuum. Filters were washed three times with 5 ml ice-cold buffer containing 50 mM Tris/HCl (pH 7.3). Non-specific binding was estimated in the presence of excess unlabeled PGE2 (10 μM). Binding data fitted to the binding model for a single class of binding sites, using nonlinear regression analysis. IC50 values thus obtained were converted to Ki using the equation of Ki=(IC50/(1+[L]/KD) where [L] represents PGE2 concentration (10 nM) and KD the dissociation constant for [^3H]PGE2 at human EP2 receptors (40 nM).
as §5, §6, §7

Data set [2] deals with T5, EP2. Nature of the data set: cAMP assay, EP2. It counts as cell-based. On the set-up: expressed in transfected cells; host or cells: HEK-EBNA. As to conditions: HEK-EBNA cells expressing EP2. Here is the method: A 384-well drug plate was prepared to contain 6 test compounds, PGE2 and cAMP in 16 serial dilutions in triplicate, using a Biomek station. HEK-EBNA cells expressing a target PG receptor subtype (EP2 or EP4) were suspended in a stimulation buffer (HBSS, 0.1% BSA, 0.5 mM IBMX and 5 mM HEPES, pH 7.4) in a density of 10^4 cells/5 μl. The reaction was initiated by mixing 5 μL drug dilutions with 5 μl of HEK-EBNA cells in a well, carried out for 30 min at room temperature, and followed by the addition of 5 μl anti-cAMP acceptor beads in the control buffer with Tween-20 (25 mM NaCl, 0.03% Tween-20, 5 mM HEPES, pH7.4). After 30 min in the dark at room temperature, the mixtures were incubated with 15 μl biotinylated-cAMP/strepavidin donor beads in Lysis/Detection buffer (0.1% BSA, 0.3% Tween-20 and 5 mM HEPES, pH7.4) for 45 min at the room temperature. Fluorescence changes were read using a Fusion-alpha HT microplate reader.
(Changes in cAMP serve as a functional read-out for many G protein-coupled receptors.)

T5 sequence (P43116 whole entry): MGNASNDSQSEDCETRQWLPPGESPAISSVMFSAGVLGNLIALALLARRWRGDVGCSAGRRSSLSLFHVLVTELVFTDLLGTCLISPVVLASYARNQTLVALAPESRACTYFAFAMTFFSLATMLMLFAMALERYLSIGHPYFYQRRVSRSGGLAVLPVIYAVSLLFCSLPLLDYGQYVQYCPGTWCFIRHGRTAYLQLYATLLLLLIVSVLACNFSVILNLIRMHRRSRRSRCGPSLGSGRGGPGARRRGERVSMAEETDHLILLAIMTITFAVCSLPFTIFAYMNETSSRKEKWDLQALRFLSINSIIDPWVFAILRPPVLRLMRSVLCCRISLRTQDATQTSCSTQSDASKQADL
T3 sequence (P35408 whole entry): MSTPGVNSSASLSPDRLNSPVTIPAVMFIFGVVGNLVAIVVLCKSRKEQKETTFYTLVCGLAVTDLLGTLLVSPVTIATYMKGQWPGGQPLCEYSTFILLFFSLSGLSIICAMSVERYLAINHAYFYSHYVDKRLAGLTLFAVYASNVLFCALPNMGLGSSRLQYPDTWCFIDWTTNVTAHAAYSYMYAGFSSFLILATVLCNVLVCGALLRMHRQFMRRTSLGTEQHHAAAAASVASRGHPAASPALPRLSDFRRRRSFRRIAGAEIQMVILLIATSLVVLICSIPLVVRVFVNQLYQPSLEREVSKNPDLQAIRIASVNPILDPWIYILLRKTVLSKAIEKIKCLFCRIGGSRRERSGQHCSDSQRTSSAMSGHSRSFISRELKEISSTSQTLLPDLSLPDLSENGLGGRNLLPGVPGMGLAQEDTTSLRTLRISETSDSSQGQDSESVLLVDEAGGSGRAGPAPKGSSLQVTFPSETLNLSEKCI
T2 sequence (P35408 whole entry): as above
T1 sequence (P43116 whole entry): as the sequence (P43116 whole entry) above

For `O=C(O)CCCCCC[C@@H]1[C@@H](CCc2cc(Cl)cc(Cl)c2)[C@H](O)C[C@H]1Cl` [compound 6, 7-{(1R,2R,3R,5R)-5-Chloro-2-[2-(3,5-dichloro-phenyl)-ethyl]-3-hydroxy-cyclopentyl}-heptanoic acid], the EC50 at hEP2/Gqs5 came to 3.27 µM; on hEP4/Gqs5, 10.2 µM; at hTP it was 4620 nM; on EP2 [2] it was 0.8 nM. Besides, the inhibition constant (Ki) at EP4 receptors amounted to 394 nM; at EP2 [1], 22 nM. Further, the “maximum ocular surface hyperemia (OSH) score” value in the data set with normotensive dogs turned out to be 0.8.
